Measurements from ChEMBL document CHEMBL4765469, “2-((3,5-Dinitrobenzyl)thio)quinazolinones: Potent Antimycobacterial Agents Activated by Deazaflavin (F)-Dependent Nitroreductase (Ddn)” (J Med Chem, 2021).
Converted amounts (≈) assume the structure as drawn.

Legend:
[1] = tested on: Mycobacterium tuberculosis; experiment: Antitubercular activity against Mycobacterium tuberculosis H37Rv ATCC 27294 grown under Middlebrook 7H9 Broth assessed as inhibition of all visible growth incubated for 7 to 14 days; type: functional; details: time 7-14 day
[2] = Cytotoxicity in human MRC5 cells by neutral red uptake assay; type: cell-based
[3] = tested on: Mycobacterium tuberculosis; experiment: Antitubercular activity against Mycobacterium tuberculosis H37Rv ATCC 27294 grown under GAST/Fe medium assessed as inhibition of all visible growth incubated for 7 to 14 days; type: functional; details: time 7-14 day
[4] = tested on: Mycobacterium tuberculosis; experiment: Antitubercular activity against Mycobacterium tuberculosis H37Rv ATCC 27294 grown under 7H9/ glucose liquid culture in presence of BSA assessed as inhibition of all visible growth incubated for 7 to 14 days; type: functional; details: time 7-14 day
[5] = tested on: Mycobacterium tuberculosis; experiment: Ratio of MIC for antitubercular activity against Mycobacterium tuberculosis H37Rv ATCC 27294 grown under 7H9/ glucose liquid culture in presence of BSA to MIC for antitubercular activity against Mycobacterium tuberculosis H37Rv ATCC 27294 grown under 7H9/ glucose liquid culture; type: functional; details: read-out: MIC>99
[6] = tested on: Mycobacterium tuberculosis; experiment: Antitubercular activity against Mycobacterium tuberculosis 14A1 deficient in nitroreductase rv3547 assessed as inhibition of all visible growth grown under 7H9/ glucose liquid culture incubated for 7 to 14 days; type: functional; details: time 7-14 day
[7] = tested on: Mycobacterium tuberculosis; experiment: Antitubercular activity against Mycobacterium tuberculosis H37Rv ATCC 27294 grown under 7H9/ADC assessed as inhibition of all visible growth incubated for 7 to 14 days; type: functional; details: time 7-14 day
[8] = tested on: Mycobacterium tuberculosis; experiment: Antitubercular activity against Mycobacterium tuberculosis H37Rv; type: functional
[9] = (§1) Inhibition of Mycobacterium tuberculosis thymidylate kinase in presence of ATP, dTMP, NADH and phosphoenol pyruvate by spectrophotometric assay
[10] = tested on: Mycobacterium tuberculosis; experiment: as §1
[11] = Genotoxicity in Salmonella typhimurium TA100 up to 349 uM incubated for 48 hrs in absence of rat liver S9 fraction by Ames test; type: toxicity; details: salmonella enterica subsp. enterica serovar typhimurium, s9, 48 h
[12] = Genotoxicity in Salmonella typhimurium TA98 up to 349 uM incubated for 48 hrs in absence of rat liver S9 fraction by Ames test; type: toxicity; details: salmonella enterica subsp. enterica serovar typhimurium, s9, 48 h
[13] = Genotoxicity in Salmonella typhimurium TA100 up to 349 uM incubated for 48 hrs in presence of rat liver S9 fraction by Ames test; type: toxicity, subcellular; details: salmonella enterica subsp. enterica serovar typhimurium, s9, 48 h
[14] = Genotoxicity in Salmonella typhimurium TA98 up to 349 uM incubated for 48 hrs in presence of rat liver S9 fraction by Ames test; type: toxicity, subcellular; details: salmonella enterica subsp. enterica serovar typhimurium, s9, 48 h

CN1CCN(c2ccc3nc(SCc4cc([N+](=O)[O-])cc([N+](=O)[O-])c4)[nH]c(=O)c3c2)CC1
MIC99 [1]: 9.4 µM (≈ 4.29 µg/mL) | CC50 [2]: 49 µM | MIC99 [3]: 9.4 µM (≈ 4.29 µg/mL) | MIC99 [4]: 9.4 µM | MIC ratio, with BSA / without BSA [5]: 1 µM | MIC99 [6]: 37 µM (≈ 16.9 µg/mL)

O=c1[nH]c(SCc2ccccc2[N+](=O)[O-])nc2ccccc12
MIC99 [1]: 12.5 µM (≈ 3.92 µg/mL) | CC50 [2]: > 64 µM | MIC99 [7]: > 50 µM | MIC99 [3]: 25 µM (≈ 7.83 µg/mL) | MIC99 [4]: > 50 µM | MIC ratio, with BSA / without BSA [5]: > 4 µM

CCOC(=O)C1=C(NC(=O)c2c(F)c(F)c(F)c(F)c2F)OC(C(N)=O)C1C (stereo unspecified)
MIC [8]: 0.5 µM

CSc1nc(-c2cccc(Br)c2)c(C#N)c(=O)[nH]1
IC50 [9]: 82 µM | MIC99 [1]: 25 µM (≈ 8.05 µg/mL) | CC50 [2]: > 64 µM

CSc1cc(-c2ccccc2)nc(O)c1C#N
MIC [8]: > 64 µM

N#Cc1c(-c2cccc(Br)c2)nc(SCc2cc([N+](=O)[O-])cc([N+](=O)[O-])c2)[nH]c1=O
IC50 [9]: 4.3 µM | MIC99 [1]: > 64 µM | CC50 [2]: > 64 µM

O=c1[nH]c(SCc2ccc([N+](=O)[O-])cc2[N+](=O)[O-])nc2ccccc12
MIC99 [1]: > 50 µM | CC50 [2]: > 64 µM

O=c1[nH]c([S+]([O-])Cc2cc([N+](=O)[O-])cc([N+](=O)[O-])c2)nc2ccccc12 (stereo unspecified)
IC50 [9]: 217 µM | MIC99 [1]: 50 µM (≈ 18.7 µg/mL) | CC50 [2]: > 64 µM

Cc1ccc2nc(SCc3cc([N+](=O)[O-])cc([N+](=O)[O-])c3)[nH]c(=O)c2c1
MIC99 [1]: 1.56 µM (≈ 0.581 µg/mL) | CC50 [2]: > 64 µM | MIC99 [3]: 1.56 µM (≈ 0.581 µg/mL) | MIC99 [4]: 6.25 µM | MIC ratio, with BSA / without BSA [5]: 4 µM | MIC99 [6]: > 50 µM

Cc1ccc(CSc2nc(O)c3ccccc3n2)cc1
MIC99 [1]: > 50 µM | CC50 [2]: > 64 µM

Oc1nc(SCc2ccc(Cl)cc2)nc2ccccc12
MIC99 [1]: > 50 µM | CC50 [2]: > 64 µM

O=c1[nH]c(SCc2cc([N+](=O)[O-])cc([N+](=O)[O-])c2)nc2ccc(N3CCCCC3)cc12
MIC99 [1]: > 50 µM | CC50 [2]: > 64 µM

Cn1c(SCc2cc([N+](=O)[O-])cc([N+](=O)[O-])c2)nc2ccccc2c1=O
MIC99 [1]: 1.56 µM (≈ 0.581 µg/mL) | CC50 [2]: > 64 µM | MIC99 [7]: 3.13 µM (≈ 1.17 µg/mL) | MIC99 [3]: 0.39 µM (≈ 0.145 µg/mL) | MIC99 [4]: 3.13 µM | MIC ratio, with BSA / without BSA [5]: 2 µM

CC1CCN(Cc2c(O)ccc3oc4c5ccccc5oc(=O)c4c23)CC1
MIC [8]: 0.125 µg/mL

NNC(=O)c1ccncc1
MIC>99 [10]: 0.15 µM

O=c1[nH]c(SCc2cc([N+](=O)[O-])cc([N+](=O)[O-])c2)nc2cc(Cl)ccc12
MIC99 [1]: 2.3 µM (≈ 0.903 µg/mL) | CC50 [2]: > 64 µM | MIC99 [7]: 25 µM (≈ 9.82 µg/mL) | MIC99 [3]: 0.72 µM (≈ 0.283 µg/mL) | MIC99 [4]: 25 µM | MIC ratio, with BSA / without BSA [5]: 10.8 µM

O=c1[nH]c(SCc2cc([N+](=O)[O-])cc([N+](=O)[O-])c2)nc2ccc(Br)cc12
MIC99 [1]: 3.13 µM (≈ 1.37 µg/mL) | CC50 [2]: > 64 µM | MIC99 [3]: 3.13 µM (≈ 1.37 µg/mL) | MIC99 [4]: 37 µM | MIC ratio, with BSA / without BSA [5]: 11.8 µM | MIC99 [6]: > 50 µM

O=c1[nH]c(SCc2ccc([N+](=O)[O-])s2)nc2ccccc12
MIC99 [1]: 350 µM (≈ 112 µg/mL) | CC50 [2]: > 64 µM

CN(C)c1ccc2nc(SCc3cc([N+](=O)[O-])cc([N+](=O)[O-])c3)[nH]c(=O)c2c1
MIC99 [1]: > 50 µM | CC50 [2]: 14 µM

O=c1[nH]c(SCc2cccs2)nc2ccccc12
MIC99 [1]: > 50 µM | CC50 [2]: > 64 µM

O=c1[nH]c(SCc2cc([N+](=O)[O-])cc([N+](=O)[O-])c2)nc2c(Cl)cccc12
MIC99 [1]: > 50 µM | CC50 [2]: > 64 µM

COc1ccc(CSc2nc3ccccc3c(=O)[nH]2)cc1
MIC99 [1]: > 50 µM | CC50 [2]: > 64 µM

O=c1[nH]c(SCc2cc([N+](=O)[O-])cc([N+](=O)[O-])c2)nc2ccc(F)cc12
MIC99 [1]: 1.2 µM (≈ 0.452 µg/mL) | CC50 [2]: > 64 µM | MIC99 [3]: 1.2 µM (≈ 0.452 µg/mL) | MIC99 [4]: 6.25 µM | MIC ratio, with BSA / without BSA [5]: 52 µM | MIC99 [6]: 6.25 µM (≈ 2.35 µg/mL)

O=c1[nH]c(SCc2cc([N+](=O)[O-])cc([N+](=O)[O-])c2)nc2ccccc12
IC50 [9]: 120 µM | MIC99 [1]: 0.6 µM (≈ 0.215 µg/mL) | CC50 [2]: > 64 µM | MIC99 [7]: 2.3 µM (≈ 0.824 µg/mL) | MIC99 [3]: 0.78 µM (≈ 0.28 µg/mL) | MIC99 [4]: 1.56 µM | MIC ratio, with BSA / without BSA [5]: 2.6 µM | Activity [11]: Non-Toxic | Activity [12]: Toxic | Activity [13]: Non-Toxic | Activity [14]: Non-Toxic | MIC99 [6]: 12.5 µM (≈ 4.48 µg/mL)

O=C(CSc1nc2ccccc2c(=O)[nH]1)NC1CCCCC1
MIC [8]: 0.3 µM
